Patent US20240053330A1, “MODULAR KINETICALLY-CONTROLLED FUNCTIONAL RNA CONSTRUCTS AND RELATED COMPOSITIONS, SYSTEMS, AND METHODS” (UNIVERSITY OF WASHINGTON, priority 2021, published 2024)

System: J306 target with alternative PAM sequences
Experiment: CRISPRa at alternative PAM sites of the J3-J23117-mRFP1 reporter
Format: cell-based, E. coli
Text: FIGS. 31A and 31B illustrate that dxCas9(3.7) expands the range of targetable scRNA target sites by recognizing alternative PAMs. […] Reporter plasmids were constructed by replacing the AGG PAM site for the J306 target in the J3-J23117-mRFP1 reporter with alternative PAM sequences that have been previously reported to be recognized by dxCas9(3.7) in human cells (Hu, J. H. et al. Evolved Cas9 variants with broad PAM compatibility and high DNA specificity. Nature 556, 57-63 (2018), incorporated herein by reference in its entirety). The (−) sign indicates a control expressing the original reporter with the AGG PAM and the CRISPRa components with Sp-dCas9, the activation domain and no scRNA.
Considering there is a limited number of genes with an appropriate NGG PAM site at precisely the optimal position upstream of the promoter, it was attempted to expand the scope of targetable PAM sites for CRISPRa. A recently characterized dCas9 variant, dxCas9(3.7), that has improved activity at a variety of non-NGG PAM sites including NGN, GAA, GAT, and CAA6 was used. […] PAM sites than NGG PAM sites (not shown), Accounting for the fact that dCas9 has some activity at non-NGG sites6 (FIG. 31), there are still on average ˜2.2-fold more dxCas9(3.7)-compatible PAM sites than dCas9-compatible PAM sites (not shown). […]

## Sp-dCas9: S. pyogenes dCas9
non-NGG PAM sites AGA, CGA, GGA, GGC, GGT, TGA
  CRISPRa activity (in words): moderate CRISPRa activity
Reporter with five bases inserted
  activation of AGT PAM site shifted into the peak activation range (in words): ineffective
